Reference: patent US20180000942A1, “COMPOSITIONS FOR DRUG ADMINISTRATION” (priority 2013, published 2018)
Each block holds one compound with its values, some of them ahead of it.

Experiments:
[1] = New Zealand White, rabbit, in vivo
[2] = Bioavailability of antisense oligonucleotide given intrajejunally; format: in vivo, Cynomolgus monkeys; details: AUC over 240 minutes relative to reference
Method: An approximately 7,000 Dalton antisense oligonucleotide (ASO) with a modified backbone (phosphorothioate oligonucleotide as described in U.S. Pat. No. 7,132,530) mixed with alkylglycoside tetradecyl-beta-D-maltoside (Intravail™), was administered to six Cynomolgus monkeys canulated into the jejunum at a dose of 10 mg/kg. The animals were fasted prior to administration. Test agents were dissolved in PBS buffer and injected through the cannula into the jejunum of each animal in a 1.5 mL volume or administered subcutaneously (s.c.) as noted in Table VIII.
The protocol involved a 3 way crossover in which each animal had the first 3 test agents in Table VIII administered on 3 different dates. There was a 1 week washout period between dosing dates. […] Analysis of the blood levels was conducted using quantitative analysis involving solid phase extraction using cationic polystyrene nanoparticles. […]
Quantitative analysis was performed with capillary gel electrophoresis of the extracted samples. […] Using the data obtained from CGE analysis, quantitation of phosphorothioate oligonucleotides was carried out. The amount of oligonucleotides in the samples (nON) was calculated using the following formula: […]
The relative bioavailabilities were determined as the ratio of each AUC divided by the AUC for the intravenously administered drug. […]

[3] = system: blood glucose; test: Insulin eye drops with […] and nose drops with 0.5% tetradecyl maltoside, blood glucose; format: in vivo, rat; details: insulin nose drops with 0.5% tetradecyl maltoside added after 120 min
[4] = system: blood glucose; test: Insulin eye drops with absorption enhancer in xylazine/ketamine anesthetized rats, blood glucose
[5] = system: human nasal epithelium; test: Irritation of nasal mucosa on daily intranasal administration; details: […] in OTC nasal saline, 33 days
[6] = in vivo; details: other: buccal, 60 mg

time to maximal concentration versus tablets without alkyl saccharides [1]: approximately one half the time
Compound: COc1ccc2[nH]cc(CCNC(C)=O)c2c1 [melatonin, 5-methoxy-N-acetyltryptamine]

Compound: CCCCCCCCCCCCCCO[C@@H]1O[C@H](CO)[C@@H](O[C@H]2O[C@H](CO)[C@@H](O)[C@H](O)[C@H]2O)[C@H](O)[C@H]1O [Tetradecyl Maltoside, n-tetradecyl-4-O-α-D-glucopyranosyl-β-D-glucopyranoside]
Average Bioavailability (n = 6) [2]: up to 18%
Blood Glucose ([3]; time 150 min): 74 mg/dL
Blood Glucose ([3]; time 165 min): 76 mg/dL
Blood Glucose ([3]; time 180 min): 68 mg/dL
effect as absorption enhancer for ocular insulin (blood glucose lowering), in words ([4]; 0.5% enhancer): effective
effect as absorption enhancer for ocular insulin (blood glucose lowering), in words ([4]; […] enhancer): effective
irritation of the nasal mucosa [5]: no observable irritation

bioavailability [6]: ≥ 4%
Compound: O=C(c1ccc(OCCN2CCCCC2)cc1)c1c(-c2ccc(O)cc2)sc2cc(O)ccc12 [raloxifene, Raloxifene]
